Legend:
[1] = tested on: angiotensin converting enzyme; assay: In vivo inhibition of angiotensin converting enzyme: blood pressure responses to i.v. angiotensin I in conscious normotensive rat after oral dosing; details: 10 mg/kg, 10 minutes post dosing, mean two animals
Description: The in vitro experiments were confirmed following the procedure of Rubin et al, J. Pharmacol. Exp. Ther 204 721 (1978) whereby jugular vein and carotid artery cannulae are placed in an ether anesthetized, normotensive,male, Spraque-Dawley rat for injection of compounds and direct recording of systemic arterial pressure, respectively. The blood pressure responses in the conscious animal to i.v. injections of angiotensin I (300 ng/kg), angiotensin II (100 ng/kg) and bradykinin (10 μg/kg) are recorded and compared with identical doses administered at various time intervals after oral dosing of the angiotensin converting enzyme inhibitor of this invention.

[2] = molecular target: T1, angiotensin converting enzyme (Oryctolagus cuniculus, UniProt P12822); assay: Inhibition of hippuryl-L-histidyl-L-leucine hydrolysis by angiotensin converting enzyme, in vitro; type: biochemical, rabbit
T1 construct: A crude angiotensin converting enzyme supernatant is obtained by blending 1 gm. of rabbit lung acetone powder; tissue Pel-Freez Biologicals; host or cells: rabbit lung (acetone powder; crude 40,000 xg supernatant)
T1 sequence (P12822 34-1310): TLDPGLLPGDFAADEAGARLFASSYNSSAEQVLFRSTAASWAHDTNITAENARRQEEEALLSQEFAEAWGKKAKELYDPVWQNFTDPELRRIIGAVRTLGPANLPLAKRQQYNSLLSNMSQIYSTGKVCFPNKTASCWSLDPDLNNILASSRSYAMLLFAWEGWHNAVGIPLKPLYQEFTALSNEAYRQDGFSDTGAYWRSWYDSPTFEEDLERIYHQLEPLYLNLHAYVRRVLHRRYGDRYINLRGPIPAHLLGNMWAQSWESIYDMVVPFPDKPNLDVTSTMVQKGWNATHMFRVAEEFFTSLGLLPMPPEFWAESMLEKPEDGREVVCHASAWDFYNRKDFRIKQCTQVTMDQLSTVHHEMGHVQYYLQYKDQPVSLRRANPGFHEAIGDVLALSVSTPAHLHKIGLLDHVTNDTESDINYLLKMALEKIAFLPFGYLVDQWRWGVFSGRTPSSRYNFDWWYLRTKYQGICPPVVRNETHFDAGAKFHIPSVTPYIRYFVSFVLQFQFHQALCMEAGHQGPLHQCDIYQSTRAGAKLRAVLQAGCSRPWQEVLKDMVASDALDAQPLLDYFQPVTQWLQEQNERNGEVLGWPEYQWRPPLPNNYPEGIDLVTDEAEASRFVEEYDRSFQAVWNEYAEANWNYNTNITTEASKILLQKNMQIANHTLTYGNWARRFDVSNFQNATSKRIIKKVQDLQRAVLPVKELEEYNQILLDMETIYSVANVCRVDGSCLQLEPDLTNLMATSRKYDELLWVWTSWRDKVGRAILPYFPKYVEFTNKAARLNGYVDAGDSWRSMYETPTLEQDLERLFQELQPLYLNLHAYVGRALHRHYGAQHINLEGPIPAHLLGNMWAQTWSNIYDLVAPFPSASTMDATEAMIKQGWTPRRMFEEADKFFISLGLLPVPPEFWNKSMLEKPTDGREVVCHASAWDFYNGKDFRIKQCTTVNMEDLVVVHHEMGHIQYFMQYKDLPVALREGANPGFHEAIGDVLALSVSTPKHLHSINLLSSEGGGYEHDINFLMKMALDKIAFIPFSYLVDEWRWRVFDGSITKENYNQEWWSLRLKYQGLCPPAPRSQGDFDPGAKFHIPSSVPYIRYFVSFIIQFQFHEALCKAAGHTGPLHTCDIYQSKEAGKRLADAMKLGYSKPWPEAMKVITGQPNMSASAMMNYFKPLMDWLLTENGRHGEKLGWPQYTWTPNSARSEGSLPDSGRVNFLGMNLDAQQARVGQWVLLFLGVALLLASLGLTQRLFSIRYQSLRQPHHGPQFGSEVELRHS
Description: The activity of the compounds of this invention was established by incubation of hippuryl-L-histidyl-L-leucine at 37° C. with angiotensin converting enzyme by the following procedure:
A crude angiotensin converting enzyme supernatant is obtained by blending 1 gm. of rabbit lung acetone powder (Pel-Freez Biologicals) with 35 ml of 50 mM (buffered) potassium phosphate, pH 8.3 and centrifuging for 45 min. at 40,000 xg.
The specific angiotensin converting enzyme substrate Hippuryl-L-histidyl-L-leucine (HHL--Sigma Chem. Co.) is prepared at 5 mM in 200 mM potassium phosphate buffer containing 757 mM NaCl at pH 8.3.
Incubation for the assay of HHL hydrolysis by angiotensin converting enzyme is carried out in a 37° C. gyrorotary incubator in disposable 13×100 mm tubes. Each 0.25 ml assay mixture contains the following components at the final concentrations: potassium phosphate buffer, 100 mM; NaCl, 300 mM; HHL, 5 mM; and enzyme 0.15 ml (10 mU approx.) added last to initiate the reaction. Zero time controls have 0.25 ml of 2 N HCl added before the enzyme. The timed reactions are terminated with acid at 30 min. similarly and the hippuric acid freed from substrate is extracted into 1.5 ml of ethylacetate by vortex mixing for 15 sec. After 5 min. centrifugation in a clinical centrifuge, a 1.0 ml aliquot of the ethyl acetate layer is transferred to a clean tube. These aliquots are evaporated to dryness by heating (120° C.) in a Temp-Block module heater.
The hippuric acid is resuspended in 1.0 ml of water, the absorbance at 228 nm is determined, and the amount present is calculated from a standard curve. The amount of hippuric acid×1.1 (extraction coefficient)×1.5 (ratio of volumes)×1 μM hippuric acid/[…]×1/30 min.=nM hippuric acid released/min. Enzyme activity in the presence of an inhibitor is compared with control activity, and reported as a percentage inhibition. (Cushman, D. W. and Cheung, H. S., Biochem. Pharmacol. 20 1637 (1971).

[3] = tested on: male spontaneously hypertensive rats; assay: Blood pressure lowering in spontaneously hypertensive rats (systolic pressure, caudal plethysmograph); type: in vivo, rat
Description: In addition, the blood pressure lowering ability of the compounds of this invention was established by measuring the systolic pressure of male spontaneously hypertensive rats with a Decker Caudal Plethysmograph. The compounds tested were administered orally and blood pressure was read prior to and at 1.5, 4 and 24 hours after drug administration.

Question: Which inhibition in vivo [1] does the source give for `O=C(O)[C@@H]1CC[C@H](c2ccccc2)N1C(=O)CCS` (relative stereo) [Example four, cis-1-(3-Mercaptopropanoyl)-5-phenyl proline] here?
Answer: Its inhibition in vivo is 65%.

Question: And the inhibition at 0.1 µg/mL ([2]; 100 ng/ml)?
Answer: Its inhibition at 0.1 µg/mL is 72%.

Question: And the “reduction of systolic blood pressure in spontaneously hypertensive rats” value ([3]; 50 mg/kg oral dose, four hours after administration)?
Answer: Its value is 21 millimeters.

Question: `CC(CSC(=O)c1ccccc1)C(=O)N1[C@@H](c2ccccc2)CC[C@H]1C(=O)O` (single isomer, unassigned) [β-acid of Example 7, 5-Phenyl-1-(3-benzoylthio-2-methyl-1-oxopropyl)proline] was tested. Which inhibition at 0.001 µg/mL ([2]; 1 ng/ml) did it give?
Answer: Its inhibition at 0.001 µg/mL is 20%.

Question: What about the inhibition at 0.01 µg/mL ([2]; 10 ng/ml) of the same compound?
Answer: Its inhibition at 0.01 µg/mL is 40%.

Question: And the inhibition at 0.05 µg/mL ([2]; 50 ng/ml)?
Answer: Its inhibition at 0.05 µg/mL is 75%.

Question: What about the “inhibition of angiotensin converting enzyme in vitro” value ([2]; 100 ng/ml) of the same compound?
Answer: The value was 84%.

Question: What about the “inhibition of angiotensin converting enzyme in vitro” value ([2]; 1000 ng/ml) of the same compound?
Answer: Its value is 99%.

Question: What about the “reduction of blood pressure in the rat” value ([3]; 10 mg/kg, oral) of the same compound?
Answer: Its value is 37 mmHg.

Question: How did the inhibition in vivo [1] turn out when `COc1ccc([C@H]2CC[C@@H](C(=O)O)N2C(=O)CCS)cc1OC` (relative stereo) [Example two, cis-1-(3-Mercaptopropanoyl)-5-(3,4-Dimethoxyphenyl)proline] was run?
Answer: The inhibition in vivo was 72%.

Question: What about the inhibition at 0.1 µg/mL ([2]; 100 ng/ml) of the same compound?
Answer: Its inhibition at 0.1 µg/mL is 40%.

Question: What about the “reduction of systolic blood pressure in spontaneously hypertensive rats” value ([3]; 50 mg/kg orally administered) of the same compound?
Answer: The value was 23 mmHg.

Question: Which results are given for `CC(CSC(=O)c1ccccc1)C(=O)N1[C@@H](c2ccccc2)CC[C@H]1C(=O)O` (single isomer, unassigned) [α-acid of Example 7, 5-Phenyl-1-(3-benzoylthio-2-methyl-1-oxopropyl)proline]?
Answer: inhibition of angiotensin converting enzyme in vitro ([2]; 100 ng/ml): 3%; inhibition of angiotensin converting enzyme in vitro ([2]; 1000 ng/ml): 17%
